Columns and labels:
Conditions in all cases: exposure time: 72 h
E21 [1] = patient-derived glioblastoma stem cells of mesenchymal subtype; test: surviving fraction (nuclei count normalised to DMSO); higher = more cells surviving (less toxic)
E57 [2] = patient-derived glioblastoma stem cells of mesenchymal subtype; test: as above
E13 [3] = patient-derived glioblastoma stem cells of classical subtype; test: as above
E31 [4] = patient-derived glioblastoma stem cells of proneural subtype; test: as above
E34 [5] = patient-derived glioblastoma stem cells of proneural subtype; test: as above
FT3469 [6] = normal neural stem cell line; test: as above
E28 [7] = patient-derived glioblastoma stem cells of classical subtype; test: as above
E21 [8] = test: phenotypic distance (Euclidean, principal components) from DMSO controls (arbitrary units); higher = stronger morphological change
E57 [9] = test: as above
E13 [10] = test: as above
E31 [11] = test: as above
E34 [12] = test: as above
FT3469 [13] = test: as above
E28 [14] = test: as above
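Wherever phenotypic distance (Euclidean, principal components) from DMSO controls is given: cell Painting imaging in 384-well plates, CellProfiler features reduced to at least 20 principal components, Euclidean distance versus same-plate DMSO vehicle wells (0.1% v/v), median over six images per well.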
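Wherever surviving fraction (nuclei count normalised to DMSO) is given: nuclei counted by high-content imaging of Hoechst-stained cells in laminin-coated 384-well plates, relative to 0.1% DMSO vehicle wells, with staurosporine as cell-death control.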

C=CC(=O)Nc1cccc(Oc2nc(Nc3ccc(N4CCN(C)CC4)cc3)nc3ccsc23)c1 [Olmutinib]
Conditions | phenotypic distance | surviving fraction
E13 [3], 4.1 nM | – | 0.944
E13 [3], 12.3 nM | – | 0.915
E13 [3], 37 nM | – | 0.963
E13 [3], 111.1 nM | – | 0.967
E13 [3], 333.3 nM | – | 0.965
E13 [3], 1000 nM | – | 0.801
E13 [3], 3000 nM | – | 0.453
E13 [10], 4.1 nM | 0.908 | –
E13 [10], 12.3 nM | 0.809 | –
E13 [10], 37 nM | 2.13 | –
E13 [10], 111.1 nM | 1.1 | –
E13 [10], 333.3 nM | 0.827 | –
E13 [10], 1000 nM | 0.937 | –
E13 [10], 3000 nM | 1.92 | –
E21 [1], 4.1 nM | – | 0.895
E21 [1], 12.3 nM | – | 0.932
E21 [1], 37 nM | – | 0.932
E21 [1], 111.1 nM | – | 0.759
E21 [1], 333.3 nM | – | 0.873
E21 [1], 1000 nM | – | 0.67
E21 [1], 3000 nM | – | 0.411
E21 [8], 4.1 nM | 0.923 | –
E21 [8], 12.3 nM | 0.831 | –
E21 [8], 37 nM | 0.851 | –
E21 [8], 111.1 nM | 3.27 | –
E21 [8], 333.3 nM | 1.24 | –
E21 [8], 1000 nM | 2.44 | –
E21 [8], 3000 nM | 5.22 | –
E28 [7], 4.1 nM | – | 0.955
E28 [7], 12.3 nM | – | 0.88
E28 [7], 37 nM | – | 1.02
E28 [7], 111.1 nM | – | 0.954
E28 [7], 333.3 nM | – | 0.885
E28 [7], 1000 nM | – | 0.842
E28 [7], 3000 nM | – | 0.419
E28 [14], 4.1 nM | 0.675 | –
E28 [14], 12.3 nM | 0.862 | –
E28 [14], 37 nM | 0.601 | –
E28 [14], 111.1 nM | 0.634 | –
E28 [14], 333.3 nM | 0.515 | –
E28 [14], 1000 nM | 1.01 | –
E28 [14], 3000 nM | 2.28 | –
E31 [4], 4.1 nM | – | 0.776
E31 [4], 12.3 nM | – | 0.969
E31 [4], 37 nM | – | 1.01
E31 [4], 111.1 nM | – | 0.698
E31 [4], 333.3 nM | – | 0.856
E31 [4], 1000 nM | – | 0.568
E31 [4], 3000 nM | – | 0.155
E31 [11], 4.1 nM | 1.5 | –
E31 [11], 12.3 nM | 0.605 | –
E31 [11], 37 nM | 0.731 | –
E31 [11], 111.1 nM | 1.36 | –
E31 [11], 333.3 nM | 0.65 | –
E31 [11], 1000 nM | 1.66 | –
E31 [11], 3000 nM | 4.05 | –
E34 [5], 4.1 nM | – | 0.929
E34 [5], 12.3 nM | – | 0.967
E34 [5], 37 nM | – | 0.814
E34 [5], 111.1 nM | – | 0.994
E34 [5], 333.3 nM | – | 0.857
E34 [5], 1000 nM | – | 0.804
E34 [5], 3000 nM | – | 0.673
E34 [12], 4.1 nM | 0.793 | –
E34 [12], 12.3 nM | 0.977 | –
E34 [12], 37 nM | 0.66 | –
E34 [12], 111.1 nM | 0.999 | –
E34 [12], 333.3 nM | 0.636 | –
E34 [12], 1000 nM | 0.75 | –
E34 [12], 3000 nM | 2.02 | –
E57 [2], 4.1 nM | – | 0.983
E57 [2], 12.3 nM | – | 1.09
E57 [2], 37 nM | – | 0.983
E57 [2], 111.1 nM | – | 0.915
E57 [2], 333.3 nM | – | 0.958
E57 [2], 1000 nM | – | 0.845
E57 [2], 3000 nM | – | 0.585
E57 [9], 4.1 nM | 0.67 | –
E57 [9], 12.3 nM | 0.94 | –
E57 [9], 37 nM | 0.658 | –
E57 [9], 111.1 nM | 2.04 | –
E57 [9], 333.3 nM | 0.972 | –
E57 [9], 1000 nM | 0.888 | –
E57 [9], 3000 nM | 3.89 | –
FT3469 [6], 4.1 nM | – | 0.879
FT3469 [6], 12.3 nM | – | 0.925
FT3469 [6], 37 nM | – | 0.864
FT3469 [6], 111.1 nM | – | 0.916
FT3469 [6], 333.3 nM | – | 0.851
FT3469 [6], 1000 nM | – | 0.856
FT3469 [6], 3000 nM | – | 0.722
FT3469 [13], 4.1 nM | 1.28 | –
FT3469 [13], 12.3 nM | 1.16 | –
FT3469 [13], 37 nM | 1.51 | –
FT3469 [13], 111.1 nM | 1.24 | –
FT3469 [13], 333.3 nM | 1.44 | –
FT3469 [13], 1000 nM | 1.3 | –
FT3469 [13], 3000 nM | 1.91 | –

Source: the supplement of paper PMC13207355
